{"source": "patent US12076368B2", "about": "“Treatment of liver, biliary tract and pancreatic disorders” (Novozymes A/S, priority 2016, dated 2024)", "key": {"C57Bl/6J DIO male mice": {"system": "C57Bl/6J DIO male mice", "experiment": "GLP-1 analog (liraglutide) treatment of high fat diet fed DIO mice (Example 5)", "format": "in vivo", "conditions": "0.2 mg/kg BID subcutaneously, 4 weeks", "excerpt": "FIG. 31: Schematic outline of the experimental set up for investigating the effects of a GLP-1 analog (Liraglutid) on mouse gut inflammation and microbiota. At week −40, the C57/BI/6J DIO mice arrived. The mice were fed a high fat diet 60% fat, SSNIFF (Diet #D12492) or purina chow for 38 weeks to achieve an average body weight of 55 gram. From week −2 the mice were single housed. Faecal samples were collected on day −1 and 27 for 16S RNA analysis. Samples from ilium were collected 2 cm from caecum at day 28.\n4 weeks old C57Bl/6J DIO male mice were fed a high fat diet (HFD 60% fat, SSNIFF (Diet #D12492)) or purina chow for […]. The HFD fed group had reached an average weight of approximately 55 grams by start of intervention. The mice were group housed 10 per cage until week −2. From week −2 the mice were single housed throughout the study. Feed intake was registered daily just before lights were turned off at 3 pm. Individual mice were subjected to experimental procedures in altered order both group and cage wise. Mice were kept at room temperature under a 12-hour light/dark cycle at SPF standard conditions.\nMice were fed either a high fat diet (HFD) or a low fat (LF) control diet. The HFD contained 2 subgroups; 1 GLP-1 analog and 1 standard HFD without supplementation of GLP-1 analog. The GLP-1 analog liraglutide was dissolved in PBS and 0.1% BSA was added. The GLP-1 analog was administered at 0.2 mg/kg BID subcutaneously."}, "[1]": {"system": "Dextran Sodium Sulphate (DSS) Induced Colitis Model in Mice", "experiment": "Acute 10-day DSS induced colitis model, hBD-2-albumin fusion N-terminal (Example 8)", "format": "in vivo", "conditions": "fusion iv or sc daily; DEX 1 mg/kg sc OD", "procedure": "“hBD-2-albumin N-terminal” was administered intravenously via the tail vein or subcutaneously with the use of a sterile 25 G needle in a dosing volume of 10 ml/kg body weight. The animals received 1 dose daily for 10 executive days."}, "isolated hepatocytes": {"system": "isolated hepatocytes", "conditions": "Liu et al. (2008); cited from earlier work"}, "[2]": {"system": "Dextran Sodium Sulphate (DSS) Induced Colitis Model in Mice", "experiment": "Acute 10-day DSS induced colitis model, hBD-2-albumin fusion C-terminal (Example 9)", "format": "in vivo", "conditions": "Pred 1 mg/kg orally daily", "procedure": "“hBD-2-albumin C-terminal” was administered intravenously via the tail vein or subcutaneously with the use of a sterile 25 G needle in a dosing volume of 10 ml/kg body weight. The animals received 1 dose daily for 10 […] days. The active control Prednisolone (Pred) was given orally by gavage at a dose of 1 mg/kg in a dosing volume of 10 ml/kg body weight OD."}, "[3]": {"conditions": "degradation by dipeptidyl peptidase-4; cited from earlier work"}, "[4]": {"experiment": "Pharmacokinetics of hBD-2 after single oral gavage (Example 6)", "format": "in vivo, NMRI mice", "conditions": "oral dosing of 4 mg/kg in mice", "procedure": "FIG. 35. Pharmacokinetic data following oral administration of 4 mg/kg hBD-2 to female NMRI mice. […] The results are given as group mean+/−SEM.\n21 female NMRI mice were dosed by oral gavage 5 ml/kg using a gavage tube and a 1 ml syringe according to the individual body weight obtained on the day of dosing. Urine was strived sampled at random time points by gently massaging the inguinal area of the abdomen. The first blood sample was taken using a submandibular sampling method. The second blood sample was collected from Isoflurane anaesthetised mice. Intestinal samples were taken after euthanasia. The abdomen of each mouse was opened and three sections of the intestines were sampled."}, "[5]": {"experiment": "Pharmacokinetics of hBD-2 and hBD-2-albumin fusions after subcutaneous or intravenous administration (Example 7)", "format": "in vivo, NMRI female mice", "conditions": "hBD-2 1 mg/kg", "procedure": "FIG. 36. Pharmacokinetic data for hBD-2 following subcutaneous (SC) and intravenous (IV) administration of 1 mg/kg respectively. […] The different curves represent different experiments and detection methods (HPLC and ELISA).\nFIG. 37. Pharmacokinetic data for “hBD-2-albumin fusion N-terminal” following subcutaneous and intravenous administration of 16.5 mg/kg respectively. […] The results are the mean of 4 mice/sampling time+/−SD.\nFIG. 38. Pharmacokinetic data for “hBD-2-albumin fusion C-terminal” following subcutaneous and intravenous administration of 16.5 mg/kg respectively. […] The results are the mean of 4 mice/sampling time+/−SD.\nThe animals were dosed 10 ml/kg of stock concentration of 1.65 mg/ml according to the individual body weight (300 μL for a 30 gram mouse). First blood sample was taken using a submandibular sampling method and the second following Isoflurane anaesthesia and euthanasia."}, "[6]": {"conditions": "compared to untreated HFD reference group"}}, "note": "Positions of bridges follow the written chain, without caps; N, C: chain ends. No end group written: not given here."}
{"compound": "CCCCCCCCCCCCCCCC(=O)N[C@@H](CCC(=O)NCCCC[C@H](NC(=O)[C@H](C)NC(=O)[C@H](C)NC(=O)[C@H](CCC(N)=O)NC(=O)CNC(=O)[C@H](CCC(=O)O)NC(=O)[C@H](CC(C)C)NC(=O)[C@H](Cc1ccc(O)cc1)NC(=O)[C@H](CO)NC(=O)[C@H](CO)NC(=O)[C@@H](NC(=O)[C@H](CC(=O)O)NC(=O)[C@H](CO)NC(=O)[C@@H](NC(=O)[C@H](Cc1ccccc1)NC(=O)[C@@H](NC(=O)CNC(=O)[C@H](CCC(=O)O)NC(=O)[C@H](C)NC(=O)[C@@H](N)Cc1cnc[nH]1)[C@@H](C)O)[C@@H](C)O)C(C)C)C(=O)N[C@@H](CCC(=O)O)C(=O)N[C@@H](Cc1ccccc1)C(=O)N[C@H](C(=O)N[C@@H](C)C(=O)N[C@@H](Cc1c[nH]c2ccccc12)C(=O)N[C@@H](CC(C)C)C(=O)N[C@H](C(=O)N[C@@H](CCCNC(=N)N)C(=O)NCC(=O)N[C@@H](CCCNC(=N)N)C(=O)NCC(=O)O)C(C)C)[C@@H](C)CC)C(=O)O", "note": "[GLP-1 analog, liraglutide]", "values": [{"measurement": "liver weight at termination vs chow fed mice", "setting": "C57Bl/6J DIO male mice", "value": "not statistically significantly different"}, {"measurement": "body weight lost", "setting": "C57Bl/6J DIO male mice; [6]", "value": "25-30%"}, {"measurement": "body weight lost (average)", "setting": "C57Bl/6J DIO male mice; [6]", "value": 15, "unit": "gram"}, {"measurement": "plasma cholesterol level vs HFD reference group", "setting": "C57Bl/6J DIO male mice; p<0.01", "value": "statistically significantly lower"}]}
{"compound": "C[C@@H]1C[C@H]2[C@@H]3CCC4=CC(=O)C=C[C@]4(C)[C@@]3(F)[C@@H](O)C[C@]2(C)[C@@]1(O)C(=O)CO", "note": "[DEX, Dexamethasone]", "values": [{"measurement": "body weight", "setting": "[1]", "value": "very significant decrease in body weight from day 5 onwards"}, {"measurement": "histological damage of colonic tissue", "setting": "[1]", "value": "failed to significantly reduce histological injury"}]}
{"compound": "human neutrophil peptide 2 (CYCRIPACIAGERRYGTCIYQGRLWAFCC; listed as Homo sapiens) [HNP-2, alpha defensin produced by leucocytes]", "values": [{"measurement": "glycogenolysis and gluconeogenesis", "setting": "isolated hepatocytes", "value": "able to inhibit glycogenolysis and gluconeogenesis in isolated hepatocytes"}]}
{"compound": "C[C@]12C=CC(=O)C=C1CC[C@@H]1[C@@H]2[C@@H](O)C[C@@]2(C)[C@H]1CC[C@]2(O)C(=O)CO", "note": "[Pred, Prednisolone]", "values": [{"measurement": "histological injury, proximal part of the colon", "setting": "[2]", "value": "failed to significantly reduce histological injury in the proximal part of the colon"}, {"measurement": "histological injury, distal colon", "setting": "[2]; p<0.01", "value": "did reduce the injury in the distal colon"}, {"measurement": "DAI", "setting": "[2]; p<0.05", "value": "significant inhibition of the DAI on day 9"}]}
{"compound": "Glucagon-like peptide-1 [GLP-1]", "values": [{"measurement": "half-life in the circulation", "setting": "[3]", "value": "less than 2 minutes"}]}
{"compound": "human neutrophil peptide 1 [HNP-1]", "values": [{"measurement": "glycogenolysis and gluconeogenesis", "setting": "isolated hepatocytes", "value": "able to inhibit glycogenolysis and gluconeogenesis in isolated hepatocytes"}]}
{"compound": "GIGDPVTCLKSGAICHPVFCPRRYKQIGTCGLPGTKCCKKP (disulfide 8-37, 15-30, 20-38) [hBD-2, human beta defensin 2]", "values": [{"measurement": "systemic availability after oral dosing", "setting": "[4]", "value": "not systemically available"}, {"measurement": "renal clearance", "setting": "[5]", "value": 10, "unit": "mL/min"}]}
